Key:
[1] = target: T1, Kappa-type opioid receptor (Homo sapiens, UniProt P41145); assay: Binding affinity against opioid receptor kappa 1 from human cloned receptor
Mu-type opioid receptor [2] = target: Mu-type opioid receptor (Homo sapiens, UniProt P35372); assay: Binding affinity determined against Opioid receptor mu 1 from human cloned receptor
[3] = target: T1, Kappa-type opioid receptor; assay: Binding constant towards human Opioid receptor kappa 1 was reported
[4] = target: Delta-type opioid receptor (Homo sapiens, UniProt P41143)
Chain of Delta-type opioid receptor (P41143 whole entry): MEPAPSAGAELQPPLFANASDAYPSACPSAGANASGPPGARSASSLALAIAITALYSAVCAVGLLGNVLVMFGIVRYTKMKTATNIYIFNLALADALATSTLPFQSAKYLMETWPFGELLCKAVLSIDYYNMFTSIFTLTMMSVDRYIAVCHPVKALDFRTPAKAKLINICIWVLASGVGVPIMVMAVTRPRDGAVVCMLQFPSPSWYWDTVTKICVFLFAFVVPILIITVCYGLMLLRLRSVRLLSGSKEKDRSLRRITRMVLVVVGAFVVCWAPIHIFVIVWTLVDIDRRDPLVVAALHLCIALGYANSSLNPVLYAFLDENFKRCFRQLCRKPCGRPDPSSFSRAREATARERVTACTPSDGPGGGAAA
Description: Binding affinity determined against Opioid receptor delta 1 from human cloned receptor

[5] = target: Kappa-type opioid receptor (Cavia porcellus, UniProt P41144); assay: Binding affinity determined against Opioid receptor kappa 1 from a native receptor in guinea pig
Chain of Kappa-type opioid receptor (Cavia porcellus, UniProt P41144) (P41144 whole entry): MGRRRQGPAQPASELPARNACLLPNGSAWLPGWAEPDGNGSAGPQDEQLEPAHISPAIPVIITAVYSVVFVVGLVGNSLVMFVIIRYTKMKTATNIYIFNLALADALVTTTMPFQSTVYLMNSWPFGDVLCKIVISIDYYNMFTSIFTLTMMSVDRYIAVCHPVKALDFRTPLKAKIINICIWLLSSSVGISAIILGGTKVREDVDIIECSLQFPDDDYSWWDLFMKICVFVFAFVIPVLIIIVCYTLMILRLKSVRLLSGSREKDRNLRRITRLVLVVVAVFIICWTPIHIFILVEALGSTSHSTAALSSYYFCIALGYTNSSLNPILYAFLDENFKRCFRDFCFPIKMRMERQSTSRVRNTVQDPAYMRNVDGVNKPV

Mu-type opioid receptor [6] = target: Mu-type opioid receptor (Cavia porcellus, UniProt P97266); assay: Binding affinity of compound was determined against Opioid receptor mu 1 from native receptor in guinea pig
Chain of Mu-type opioid receptor (Cavia porcellus, UniProt P97266) (P97266 whole entry): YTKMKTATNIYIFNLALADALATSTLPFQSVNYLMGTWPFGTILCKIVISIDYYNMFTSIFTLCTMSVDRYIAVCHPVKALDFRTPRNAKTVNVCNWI

T1 sequence (P41145 whole entry): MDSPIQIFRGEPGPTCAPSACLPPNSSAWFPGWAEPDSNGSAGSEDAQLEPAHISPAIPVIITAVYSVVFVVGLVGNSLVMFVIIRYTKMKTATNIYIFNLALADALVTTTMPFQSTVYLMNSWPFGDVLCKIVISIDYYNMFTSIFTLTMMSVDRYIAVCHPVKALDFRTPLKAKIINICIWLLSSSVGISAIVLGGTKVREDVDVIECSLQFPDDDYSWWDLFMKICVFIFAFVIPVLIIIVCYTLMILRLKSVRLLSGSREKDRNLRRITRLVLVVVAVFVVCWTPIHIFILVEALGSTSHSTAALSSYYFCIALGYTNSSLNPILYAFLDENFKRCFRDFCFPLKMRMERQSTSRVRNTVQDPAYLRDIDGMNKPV
Chain of Mu-type opioid receptor (Homo sapiens, UniProt P35372) (P35372 whole entry): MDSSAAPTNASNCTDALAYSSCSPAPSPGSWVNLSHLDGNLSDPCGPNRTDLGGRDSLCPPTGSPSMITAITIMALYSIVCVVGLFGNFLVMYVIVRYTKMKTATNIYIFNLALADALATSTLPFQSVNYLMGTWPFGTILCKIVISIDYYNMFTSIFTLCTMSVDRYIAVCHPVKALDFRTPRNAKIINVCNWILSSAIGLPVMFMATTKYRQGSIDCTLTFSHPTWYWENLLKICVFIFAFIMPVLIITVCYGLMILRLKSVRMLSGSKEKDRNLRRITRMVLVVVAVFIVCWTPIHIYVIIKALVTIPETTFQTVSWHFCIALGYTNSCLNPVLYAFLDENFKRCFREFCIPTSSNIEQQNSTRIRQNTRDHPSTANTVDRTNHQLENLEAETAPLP

Row | SMILES | Ki [1] [nM] | Ki (Mu-type opioid receptor [2]) [nM] | Ki [3] [nM] | Ki [4] [nM] | Ki [5] [nM] | Ki (Mu-type opioid receptor [6]) [nM]
1 | CN1c2ccccc2C(c2ccccc2)=NCC1CCNC(=O)c1cccs1 (configuration not stated) | 0.58 | 9.4 |  |  |  | 
2 | CN1c2ccc(Cl)cc2C(c2ccccc2)=NCC1CCNC(=O)c1ccccc1F (configuration not stated) | 1.52 |  | 1.55 |  |  | 
3 | CN1c2ccccc2C(c2ccccc2)=NC[C@@H]1CCNC(=O)c1cccs1 | 0.43 | 9.2 | 0.427 |  |  | 
4 | CN1c2ccccc2C(c2ccccc2F)=NC[C@H]1CCNC(=O)c1ccsc1 | 0.71 | 24.8 |  | 438 |  | 
5 | CN1c2ccccc2C(c2ccccc2F)=NCC1CCNC(=O)c1ccsc1 (configuration not stated) | 0.37 | 3 |  | 69 | 0.78 | 1.93
6 | CN1c2ccc(Cl)cc2C(c2ccccc2)=NCC1CCNC(=O)c1ccc(Cl)cc1 (configuration not stated) | 1.31 |  | 1.32 |  |  | 
7 | COc1cccc2c1C(c1ccccc1)=NCC(CCNC(=O)c1cccs1)N2C (configuration not stated) | 3.77 |  | 3.8 |  | 116 | 
8 | Oc1ccc2c3c1O[C@H]1c4[nH]c5ccccc5c4C[C@@]4(O)[C@@H](C2)N(CC2CC2)CC[C@]314 [NALTRINDOLE] |  |  |  |  | 10.2 | 14.7
9 | CN1c2ccccc2C(c2ccccc2)=NCC1CCNC(=O)c1ccc([N+](=O)[O-])cc1 (configuration not stated) | 0.47 |  | 0.479 |  |  | 
10 | CN1c2ccccc2C(c2ccccc2)=NCC1CCNC(=O)c1ccccc1F (configuration not stated) | 0.36 |  | 0.363 |  |  | 
11 | CN(CCC1CN=C(c2ccccc2)c2ccccc2N1C)C(=O)c1cccs1 (configuration not stated) | 4.34 |  | 4.37 |  | 25.7 | 
12 | CN1c2ccc(Cl)cc2C(c2ccccc2)=NC[C@@H]1CCNC(=O)c1cccs1 | 0.69 | 27.4 | 0.692 |  |  | 
13 | CN1c2ccc(Cl)cc2C(c2ccccc2)=NCC1CCNC(=O)c1cc2ccccc2[nH]1 (configuration not stated) | 13.6 |  | 13.5 |  |  | 
14 | O=C(NCCC1CN=C(c2ccccc2)c2ccccc2N1)c1cccs1 (configuration not stated) | 0.45 |  | 0.447 |  | 1.74 | 
15 | O=C(NCCC1CN=C(c2ccccc2)c2ccccc2N1)c1ccc(F)cc1 (configuration not stated) | 0.28 |  | 0.282 |  |  | 
16 | O=C(NCCC1CN=C(c2ccccc2)c2ccccc2N1)c1ccccc1 (configuration not stated) | 0.25 |  | 0.251 |  |  | 
17 | O=C(NCCC1CN=C(c2ccccc2)c2ccccc2N1)c1ccccc1F (configuration not stated) | 0.53 |  | 0.537 |  |  | 
18 | CN1c2ccc(Cl)cc2C(c2ccccc2)=NCC1CCNC(=O)c1ccc(F)cc1 (configuration not stated) | 0.55 |  | 0.55 |  |  | 
19 | CN1c2ccc(Cl)cc2C(c2ccccc2)=NCC1CCNC(=O)c1cccs1 (configuration not stated) | 0.7 | 26.3 |  |  |  | 
20 | CN1c2ccc(Cl)cc2C(c2ccccc2)=NC[C@H]1CCNC(=O)c1cccs1 | 0.79 | 33.2 |  |  |  | 
21 | CN1c2ccccc2C(c2ccccc2)=NC[C@H]1CCNC(=O)c1cccs1 | 1.28 | 54.8 |  |  |  | 
22 | CN1c2ccccc2C(c2ccccc2)=NCC1CCNC(=O)c1ccc(F)cc1 (configuration not stated) | 0.3 |  | 0.302 |  |  | 
23 | CN1c2ccccc2C(c2ccccc2F)=NC[C@@H]1CCNC(=O)c1ccsc1 | 0.17 | 1.5 | 0.17 | 27.8 |  | 

Reference: ChEMBL document CHEMBL1144935, “Synthesis, biological evaluation, and receptor docking simulations of 2-[(acylamino)ethyl]-1,4-benzodiazepines as kappa-opioid receptor agonists endowed with antinociceptive and antiamnesic activity” (J Med Chem, 2003)
